Values quoted from earlier work as cited in US12246097B2, “Nanoparticle vaccine adjuvant and methods of use thereof” (Massachusetts Institute of Technology, priority 2018, dated 2025).

System: chick embryo eggs
Conditions: as measured by lethal dose in chick embryo eggs

In the case of 4′-monophosporyl lipid A [MPLA], the “toxicity reduced by a factor (relative to LPS)” value is given as “more than 1000”.
